Converted amounts (≈) assume the structure as drawn.
How the values were obtained:
[1] = Solubility of discodermolide in various solvent systems measured by HPLC; assay type: physicochemical
Description: The solubility of discodermolide in various solvent systems is measured by HPLC and the results shown below: […]

[2] = Stability of infusion concentrates diluted 1:5 with 20/80 propylene glycol/0.9% sodium chloride, ambient conditions; assay type: physicochemical
Description: In this example, stability of discodermolide infusion concentrates diluted 1:5 with 20/80 propylene glycol/0.9% sodium chloride solution under ambient conditions is measured. Table 4 describes the amount of degradation product formed over a period of up to 24 hours. The stability is analyzed by determining formation of degradation products in each of the infusion solutions as a function of time and temperature. Each sample is analyzed by HPLC with a UV detector. The solution for infusion was prepared by diluting discodermolide concentrates, 0.6 mg/mL, 2.0 mg/mL and 3.0 mg/mL, with 20/80 propylene glycol/0.9% sodium chloride solution in a 1:5 ratio. The discodermolide concentrate solutions of 0.6 mg/mL, 2.0 mg/mL and 3.0 mg/mL yielded discodermolide solutions for infusions 0.12 mg/mL, 0.4 mg/mL and 0.6 mg/mL, respectively.

[3] = Effect of organic solvent ratio variation on solubility; assay type: physicochemical; conditions: propylene glycol/ethanol/normal saline mixture, aqueous with cosolvent or surfactant or cyclodextrin
[4] = Solubility and stability in 40% PG/10% ethanol/50% normal saline with hydrotropic agents; assay type: physicochemical; conditions: aqueous with cosolvent or surfactant or cyclodextrin, read-out: Discodermolide Solubility
Description: The solubility and stability of discodermolide in 40% propylene glycol/10% ethanol 50% normal saline diluted with hydrotropic agents is shown in Table 7.

[5] = Storage stability of infusion concentrate vials and infusion solution; assay type: physicochemical
Description: An infusion concentrate comprising 2 mg of discodermolide is dissolved in 98-100% propylene glycol (PG) (1.0 mL) and charged to 6 mL vials. The vials are used for storage and shipment. The vials are stable for a period of at least 2 years at a temperature of 2-8° C. The vehicle is prepared in a separate 2 mL single dose vial. Each mL of solution contains 7.3 mg of sodium chloride USP, and 163 mg of ethanol (EtOH) in water for injection(saline) (16.3% ethanol in 0.9% sodium chloride solution, 2 mL fill). The storage condition is 25° C. for the vehicle. Prior to i.v. administration, 1.6 mL of the vehicle is withdrawn with a sterile disposable syringe and injected into the vial containing the discodermolide. The solution is gently shaken until a clear homogeneous solution for infusion is obtained containing 0.77 mg/mL discodermolide in 40% propylene glycol, 10% ethanol and 50% normal saline. The ratio of discodermolide concentrate to the diluent vehicle in the diluted solution is 1:1.6 v/v. The i.v. solution thus formed is stable for a period of 8 hours at room temperature.

[6] = Solubility and stability in aqueous media; assay type: physicochemical
[7] = Precipitation on direct i.v. infusion followed by normal saline flush; conditions: direct i.v. infusion into the vein followed by a normal saline flush
Description: Preferably the infusion solution of the present invention is prepared by mixing the infusion concentrate with a diluent, such as 16.3% w/v ethanol in saline in a suitable container. A preferred formulation comprises 1 mL of 2 mg/mL infusion concentrate diluted with 1.6 mL of 16.3% w/v ethanol in saline to yield an infusion solution containing 0.77 mg/mL discodermolide in 40% propylene glycol, 10% ethanol and 50% normal saline. This solution is administered via i.v. infusion, or push into Y tubing containing a 0.9% normal saline drip, directly into the vein and the drug solution residue in the tubing will be flushed with normal saline. The volume of discodermolide solution given via i.v. push will vary from 0.3 mL (at the starting does of 0.2 mg or 0.13 mg/m^2) to 26 mL (for a dose of 20 mg or 11.43 mg/m^2) or 43 mL (for a dose of 33 mg or 19.2 mg/m^2).

[8] = 0.12 mg/mL solution for infusion, 0 hours
[9] = 0.12 mg/mL solution for infusion, 2 hours
[10] = 0.12 mg/mL solution for infusion, 4 hours
[11] = 0.12 mg/mL solution for infusion, 8 hours
[12] = 0.12 mg/mL solution for infusion, 24 hours
[13] = 0.4 mg/mL solution for infusion, 0 hours
[14] = 0.4 mg/mL solution for infusion, 2 hours
[15] = 0.4 mg/mL solution for infusion, 4 hours
[16] = 0.4 mg/mL solution for infusion, 8 hours
[17] = 0.4 mg/mL solution for infusion, 24 hours
[18] = 0.6 mg/mL solution for infusion, 0 hours
[19] = 0.6 mg/mL solution for infusion, 2 hours
[20] = 0.6 mg/mL solution for infusion, 4 hours
[21] = 0.6 mg/mL solution for infusion, 8 hours
[22] = 0.6 mg/mL solution for infusion, 24 hours
[23] = normal saline (0.9% sodium chloride)

SMILES: C=C/C=C\C(C)[C@H](OC(N)=O)[C@@H](C)[C@H](O)[C@@H](C)C/C(C)=C\C(C)C(O)[C@@H](C)/C=C\[C@@H](O)C[C@@H]1OC(=O)[C@H](C)C(O)C1C (single isomer, unassigned; (+)) [discodermolide, (+)-Discodermolide]
- solubility ([1]; 20% PEG 300/80% normal saline, aqueous with cosolvent or surfactant or cyclodextrin): 20 µg/mL (≈ 33.7 µM)
- solubility ([1]; 20% propylene glycol/80% normal saline, aqueous with cosolvent or surfactant or cyclodextrin, 20% PG/80% normal saline): 130 µg/mL (≈ 219 µM)
- solubility ([1]; 30% ethanol/70% normal saline, aqueous with cosolvent or surfactant or cyclodextrin): 200 µg/mL (≈ 337 µM)
- solubility ([1]; 60% PEG 300/40% normal saline, aqueous with cosolvent or surfactant or cyclodextrin): 400 µg/mL (≈ 674 µM)
- solubility ([1]; 60% ethanol/40% normal saline, aqueous with cosolvent or surfactant or cyclodextrin): 2300 µg/mL (≈ 3870 µM)
- solubility ([1]; 60% propylene glycol/40% normal saline, aqueous with cosolvent or surfactant or cyclodextrin, 60% PG/40% normal saline): 530 µg/mL (≈ 893 µM)
- solubility ([1]; 100% PEG 300, organic solvent or mixture): > 20000 µg/mL
- solubility ([1]; 100% ethanol, organic solvent or mixture): > 20000 µg/mL
- solubility ([1]; 100% propylene glycol, organic solvent or mixture, 100% PG): > 20000 µg/mL
- Assay [2, 8]: 105.6 % label claim
- Total Impurities [2, 8]: 0.17 % area
- Assay [2, 9]: 105.6 % label claim
- Total Impurities [2, 9]: 0.17 % area
- Assay [2, 10]: 106.4 % label claim
- Total Impurities [2, 10]: 0.21 % area
- Assay [2, 11]: 107.0 % label claim
- Total Impurities [2, 11]: 0.25 % area
- Assay [2, 12]: 104.6 % label claim
- Total Impurities [2, 12]: 0.33 % area
- Assay [2, 13]: 102.3 % label claim
- Total Impurities [2, 13]: 0.23 % area
- Assay [2, 14]: 101.8 % label claim
- Total Impurities [2, 14]: 0.97 % area
- Assay [2, 15]: 102.2 % label claim
- Total Impurities [2, 15]: 1.84 % area
- Assay [2, 16]: 102.0 % label claim
- Total Impurities [2, 16]: 3.35 % area
- Assay [2, 17]: 94.8 % label claim
- Total Impurities [2, 17]: 6.21 % area
- Assay [2, 18]: 103.0 % label claim
- Total Impurities [2, 18]: 0.28 % area
- Assay [2, 19]: 100.0 % label claim
- Total Impurities [2, 19]: 1.49 % area
- Assay [2, 20]: 99.4 % label claim
- Total Impurities [2, 20]: 2.19 % area
- Assay [2, 21]: 98.8 % label claim
- Total Impurities [2, 21]: 3.68 % area
- Assay [2, 22]: 89.9 % label claim
- Total Impurities [2, 22]: 8.90 % area
- solubility ([3]; PG 38 / EtOH 9 / normal saline 53 (%, w/v)): 640 µg/mL
- solubility ([3]; PG 38 / EtOH 9.5 / normal saline 52.5 (%, w/v)): 700 µg/mL
- solubility ([3]; PG 40 / EtOH 8 / normal saline 52 (%, w/v)): 620 µg/mL
- solubility ([3]; PG 40 / EtOH 9 / normal saline 51 (%, w/v)): 770 µg/mL
- solubility ([3]; PG 40 / EtOH 9.6 / normal saline 50.4 (%, w/v)): 870 µg/mL
- solubility ([3]; PG 40 / EtOH 10 / normal saline 50 (%, w/v)): 960 µg/mL
- solubility ([4]; 40% PG/10% EtOH/4% benzoic acid in normal saline): 1900 µg/mL (≈ 3200 µM)
- solubility ([4]; 40% PG/10% EtOH/4% benzoic acid/1% benzyl alcohol in normal saline): 2200 µg/mL (≈ 3700 µM)
- solubility ([4]; propylene glycol/ethanol/normal saline mixture, 40% PG/10% EtOH in normal saline): 910 µg/mL (≈ 1530 µM)
- Period of stability of i.v. solution ([5]; 0.77 mg/mL in 40% propylene glycol, 10% ethanol, 50% normal saline, room temperature): 8 h
- Period of stability of infusion concentrate vials ([5]; 2 mg discodermolide in 1.0 mL 98-100% propylene glycol, 2-8° C.): at least 2 years
- Solubility in aqueous solvents and aqueous-organic mixtures [6]: poor solubility
- Stability in aqueous solvents and aqueous-organic mixtures [6]: poor stability
- Degradation on dilution of infusion concentrate [6, 23]: degrades to the hydrolysis product
- Precipitation on dilution of infusion concentrate [6, 23]: precipitation of the discodermolide is observed
- Solubility in water ([6]; water): practically insoluble
- Precipitation on administration [7]: will not cause any precipitation

From patent US20070082945A1, “Discodermolide compositions” (priority 2003, published 2007)
